Test [1] deals with murine macrophages (RAW 264.7). The test is classed as cell-based.
In test [2] the test system is vaccinia virus. The test is classed as cell-based.
Test [3] deals with Bacillus anthracis Sterne strain. The arrangement: species or system DBA/2 mice. Particulars: mouse, in vivo.
Test [4] concerns human neutrophils. Format: cell-based. Conditions: for IL-8 production by neutrophils: cytokine-stimulated, FIG. 12.
In test [5] the test system is human neutrophils. The test is classed as cell-based. Particulars: cytokine-treated neutrophils; donor-dependent; FIGS. 10 and 11.
A further test concerns B. anthracis (Sterne). The arrangement: species or system A/J mice. Particulars: mouse, in vivo; for mice still alive: ip.
Test [6] has as its system primary murine splenocytes. The arrangement: species or system Balb/c mice. Conditions: mouse, in vivo.
Test [7] concerns Vaccinia virus (strain WR). The arrangement: species or system Balb/C mice. Particulars: mouse, in vivo.
Test [8] relates to VEE virus. The arrangement: species or system mice. Particulars: mouse, in vivo.
Test [9] relates to VEE virus. The arrangement: species or system mice. Conditions: mouse, in vivo. The source holds these as a separate data set.
The next test concerns Colon-26 cells. The arrangement: species or system Balb/c mice. Particulars: mouse, in vivo.
Test [10] concerns murine peritoneal exudate cells. Details: species or system Balb/c mice. Particulars: mouse, in vivo.
Test [11] relates to vaccinia virus. The test is classed as in vivo.
Another test deals with murine PECs. The test is classed as cell-based, BALB/c mice.

Consider `CC(=O)O.CNC(=N)NCCC[C@H](N)C(=O)O` [L-NMA, N^G-monomethyl-L-arginine acetate, reference compound], for which the NO production entry in test [1] is reported as “inhibit NO production”. Besides, the VV replication result in the test on vaccinia virus [2] is recorded as “restored VV replication”.

Take `O=C(O)c1cn(C2CC2)c2cc(N3CCNCC3)c(F)cc2c1=O` [ciprofloxacin]: the survival in [3] was determined as 40%.

On to GM-CSF, for which the “IL-8 production by neutrophils” value with human neutrophils [4] is on record as “significantly increased”. The superoxide anion levels entry in the test on human neutrophils [5] is recorded as “increased superoxide anion levels”. Moreover, in the test with B. anthracis (Sterne), the survival result was “increased survival” and the mice still alive is given as 25%. The CD25 marker expression entry in [6] is listed as “significant activation”.

Take IFN-α: in [7], the mice remained alive is on record as 95% and the mice still alive came to 95%.

IL-8: cytokine: the superoxide anion levels result in the test with human neutrophils [5] was “increased superoxide anion levels”.

Consider IL-12: cytokine, for which the superoxide anion levels result in the test with human neutrophils [5] was “increased superoxide anion levels”. Also, the “survival of lethally VEE-infected mice” value with VEE virus [8] is on record as “increased survival, but not significantly”. Also, the “reduction of VEE titers in the lungs compared to control animals” value in the test on VEE virus [9] is given as approximately 1.5 log10. Moreover, the survival entry with B. anthracis (Sterne) was “increased survival”. Besides, in the test on Colon-26 cells, the “cytolysis by NK/NKT cells” value is listed as “significant increases”.

For platelet activating factor [PAF], the “GM-CSF-induced IL-8 production” value in the test on human neutrophils [4] (PAF added to GM-CSF, FIG. 13) is given as “enhances”. For the same molecule, in the test on human neutrophils [4], the “IL-8 production by neutrophils” value is “increased IL-8 production moderately”.

B1: IFN-γ: cytokine interferon-gamma (protein, UniProt P01579 24-161, looked up)
Interferon gamma: QDPYVKEAENLKKYFNAGHSDVADNGTLFLGILKNWKEESDRKIMQSQIVSFYFKLFKNFKDDQSIQKSVETIKEDMNVKFFNSNKKKRDDFEKLTNYSVTDLNVQRKAIHELIQVMAELSPAAKTGKRKRSQMLFRG
Regarding B1, in test [10], the “nitric oxide production by PECs” value is on record as “significant increases”. The superoxide anion levels result in the test on human neutrophils [5] is recorded as “increased superoxide anion levels”. The “survival of lethally VEE-infected mice” value in the test on VEE virus [8] was “increased survival”. The “reduction of VEE titers in the lungs compared to control animals” value with VEE virus [9] is given as approximately 0.5 log10. The nitric oxide production entry in test [1] is recorded as “increased nitric oxide production dramatically”. Further, in the test on B. anthracis (Sterne), the survival result is on record as “increased survival” and the mice still alive is recorded as 10%. In addition, the “cytolysis by NK/NKT cells” value in the test on Colon-26 cells is reported as “moderate increases”. Besides, in test [7], the mice remained alive was found to be 100%, the mice still alive was 100% and the “protection against lethal VV (strain WR) challenge” value is listed as “complete protection”. Besides, in the test with vaccinia virus [2], the “effect of cytokine on cell wall-enhanced vaccinia virus clearance” value was “possible weak synergetic effect”, the “plaque forming units relative to cell wall treatment” value is “reduced the number of plaque forming units even further” and the “reduction in VV titer” value is reported as 95%. The “vaccinia virus-induced cytopathic effect” value in the test with vaccinia virus [11] is on record as “appeared to be reduced”. In addition, the “increase of cell wall-induced nitric oxide production” value in the test on murine PECs lay within 10 to 20 µM.
